Data set [1] concerns the target T1, Ref-1/APE1 (Homo sapiens, UniProt P27695).
T1 construct: endogenous in cells
Briefly: Ref-1/APE1 endonuclease activity in tumor cells. Format: cell-based.

Data set [2] deals with sensory neuronal cultures. Briefly: Neuronal cell viability (trypan blue exclusion). Format: cell-based. The method, then: Primary cultures of sensory neurons were harvested and maintained as previously described (Vasko et al., 2005). Briefly, adult male Sprague-Dawley rats (150-175 g; Harlan, Indianapolis, Ind.) were euthanized by CO2 asphyxiation and dorsal root ganglia (DRG) dissected from all spinal levels, transferred to into a collagenase solution (1 mg/ml), incubated for 1 hour at 37° C., then dissociated by mechanical agitation. Approximately 30,000 cells or 60,000 cells were plated into each well of 12-well or 6-well culture plates, respectively. All culture dishes were precoated with poly-D-lysine and laminin. Cells were maintained in F-12 media supplemented with 10% horse serum, 2 mM glutamine, 100 μg/ml Normocin™, 50 μg/ml penicillin, 50 μg/ml streptomycin, 50 μM 5-fluoro-2′-deoxyuridine (Invitrogen), 150 μM uridine, and 30 ng/ml of NGF in 3% CO2 at 37° C. Growth medium was changed every other day. Experiments were performed after cells were maintained in culture for 12-14 days.
Sensory neuronal culture trypan blue exclusion analysis was performed as previously described (Vasko et al., 2011). Cells were detached by adding a 0.05% trypsin-EDTA solution and media to each well. An equal volume of 0.4% (w/v) trypan blue in PBS was added to the cell suspension and the numbers of living cells (i.e., those that exclude the dye) were counted under a phase contrast microscope using a hemacytometer. Percent survival was calculated as the percent of live cells divided by the total cell number (including dead and live cells).

The next data set concerns NFκB. Briefly: NF-κB luciferase reporter transactivation assay. Format: cell-based. Particulars: read-out: inhibition of NFκB binding to the reporter construct, IC50. The method, then:
Reporter assays were performed as previously described (Georgiadis et al., 2008; Kelley et al., 2011; Cardoso et al., 2012b; Luo et al., 2012). Cells were transfected with NF-κB-Luciferase construct containing an NF-κB-response promoter and driving the expression of a luciferase gene and a Renilla luciferase control reporter vector pRL-CMV. After a 24-hour transfection period, cells were lysed, and Firefly and Renilla luciferase activities were assayed using Renilla luciferase activity for normalization. All of the transfection experiments were performed in triplicate and repeated at least three times in independent experiments. Data are expressed as mean±standard error from a representative experiment, and Student's t tests were performed.
A general note: A reporter such as luciferase makes a cellular process visible.

Data set [3] can be described thus: P450 metabolism analysis using human microsomes. Format: in vitro ADME. Particulars: human. The method, then: (§1) PK studies were performed in the IU Simon Cancer Center Clinical Pharmacology Analytical Core (CPAC), as previously described for E3330 (Fishel et al., 2011) and standards for the compounds used. P450 metabolism studies using human microsomes were also performed in CPAC directed by Dr. David Jones.

For a further data set, the system named is DRG. Briefly: Cisplatin ± APX3330 in neuroblastoma tumor-bearing mice. The class given is in vivo. From the text: Neuroblastoma cells were implanted subcutaneously into the right flanks of 6-wk old male NSG mice and allowed to proliferate until tumor volumes ≥150 mm^3. Mice were then randomized for treatment with cisplatin±APX3330 treatment.
In data set [4] the target is T2, Ref-1/APE1 (Rattus norvegicus, UniProt P43138).
T2 construct: When isolated sensory neurons were exposed to APX3330; endogenous in cells; host or cells: isolated sensory neurons
T2 sequence (P43138 whole entry): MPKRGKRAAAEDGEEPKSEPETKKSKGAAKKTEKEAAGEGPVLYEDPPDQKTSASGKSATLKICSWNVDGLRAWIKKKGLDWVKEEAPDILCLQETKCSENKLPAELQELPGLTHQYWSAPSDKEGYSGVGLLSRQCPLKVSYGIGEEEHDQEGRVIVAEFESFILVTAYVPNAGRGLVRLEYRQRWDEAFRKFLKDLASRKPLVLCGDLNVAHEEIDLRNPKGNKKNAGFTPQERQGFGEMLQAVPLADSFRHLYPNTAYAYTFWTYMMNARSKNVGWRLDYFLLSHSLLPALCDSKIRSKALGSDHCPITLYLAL
Briefly: Ref-1/APE1 endonuclease activity in isolated sensory neurons. The class given is cell-based.

For data set [5], the system named is neuronal cultures derived from DRG. Briefly: CGRP release from DRG neuronal cultures (Example 1). The class given is cell-based, rat. The method, then:
Dorsal root ganglia (DRG) were dissected from all spinal levels of adult male (150-175 g) Sprague-Dawley rats (Envigo, Indianapolis, Ind.) and the cells were dissociated as previously described (Kelley et al., 2014). Briefly, the rats were euthanized by CO2 asphyxiation. DRGs were transferred into collagenase solution (1 mg/ml) and incubated for 1 hour at 37° C. The digested DRGs were then rinsed with growth medium, centrifuged and dissociated by mechanical agitation. Approximately 30,000 cells were plated into each well of 12-well culture plates. All culture dishes were precoated with poly-D-lysine and laminin. Cells were maintained in F-12 media supplemented with 10% horse serum, 2 mM glutamine, 100 μg/ml Normocin, 50 μg/ml penicillin, 50 μg/ml streptomycin, 50 μM 5-fluoro-2′-deoxyuridine, 150 μM uridine, and 30 ng/ml of NGF in 3% CO2 at 37° C. Growth medium was changed every other day.
Small interfering RNAs to APE1 (APE1siRNA) and scrambled siRNA (SCsiRNA) controls were used to decrease APE1 protein expression in sensory neuronal cell cultures and as controls, respectively, as described previously (Vasko et al., 2005, Jiang et al., 2008a). On day 3 in culture, the growth media was replaced with 0.5 ml of Opti-MEM 1 media containing 100 nM of APE1siRNA (5′-[…]-3′ (SEQ ID NO:1)) or SCsiRNA (5′-[…]-3′(SEQ ID NO:2)); (Vasko et al., 2005)) and 10 μl of the transfecting reagent, Neuroporter. On the next day, 0.5 ml of the growth media without antibiotics was added to each well, and after an additional 24 hours the media containing siRNA was replaced with normal growth media.
Lentiviral constructs containing (1) the CMV promoter, HA-tagged APE1, IRES, and enhanced green fluorescent protein (EGFP); or (2) CMV, IRES, and EGFP were developed. DNA sequencing confirmed the constructs in the pLenti6-R4R2-V5 plasmid containing WT-, C65-, or 226+177-APE1-IRES-EGFP. For lentiviral infections, DRG cells were cultured 5 days before 150 pfu/cell of the lentivirus was added to the media. Two days later, the virus was removed and the cells grown an additional 5 days in regular media.
After neuronal cultures were treated with the appropriate drugs, the cultures were washed once with HEPES buffer consisting of (in mM) 25 HEPES, 135 NaCl, 3.5 KCl, 2.5 CaCl2, 1 MgCl2, 3.3 D-glucose, and 0.1% bovine serum albumin, pH 7.4 and maintained at 37° C. They were then incubated for successive 10-minute intervals with 0.4 ml of HEPES buffer alone (basal release), with buffer containing 30 nM capsaicin, then with buffer alone (to assess return to basal release). After each incubation, the buffer was removed and the amount of immunoreactive CGRP in each sample was measured using radioimmunoassay as previously described (Chen et al., 1996). After the release experiment, the cells in each well were in 0.4 ml of 0.1 M HCl10 minutes and an aliquot taken to measure total CGRP content in the cultures using radioimmunoassay. Total content (fmol/well) was calculated by adding the total amount released in all incubations to the amount measured in the cells. The release data is calculated as fmol released/well/10 minutes.

The nature of another data set: Pharmacokinetics (PK). Particulars: in vivo. The method, then:
as §1

The structures appear in SMILES notation.

T1 sequence (P27695 whole entry): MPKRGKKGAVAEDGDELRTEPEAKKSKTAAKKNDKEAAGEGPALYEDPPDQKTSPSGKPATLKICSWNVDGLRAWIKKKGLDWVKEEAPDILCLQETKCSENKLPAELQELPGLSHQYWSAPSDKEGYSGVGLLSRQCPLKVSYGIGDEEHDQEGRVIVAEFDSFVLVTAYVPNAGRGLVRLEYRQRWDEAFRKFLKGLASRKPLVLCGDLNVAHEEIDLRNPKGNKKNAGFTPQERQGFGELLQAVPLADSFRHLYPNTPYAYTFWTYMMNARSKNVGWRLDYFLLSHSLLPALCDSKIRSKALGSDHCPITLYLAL

The IC50 is the concentration that inhibits the measured activity by half. As usually defined, the half-life is the time needed for the level to fall by half in the phase considered. A lower half-life goes with fast loss. For the molecule `CCCCCCCCC/C(=C\C1=C(C)C(=O)C(OC)=C(OC)C1=O)C(=O)O` [APX3330], the results for the Ref-1/APE1 endonuclease activity entry on Ref-1/APE1 [1] and on Ref-1/APE1 [4] were “not observed in tumor cells” and “concentration-dependent increase in Ref-1/APE1 endonuclease activity”, respectively. The “effect on cisplatin-induced cell death” value in data set [2] (20 μM for 48 hours prior to and throughout the cisplatin treatment (24 hours)) is on record as “blocked”. In data set [2] (24 hours, E3330 10, 20 or 40 μM, APX2009 various concentrations), the “cell death / cell viability, drug alone” value was “no significant cell death”. Also, the IC50 with NFκB was found to be 45 µM. In addition, the half-life in data set [3] is 0.333 h; in “Pharmacokinetics (PK)”, 3.6 h. In addition, the “cisplatin or oxaliplatin's tumor-killing efficacy” value with DRG (in vivo (data not shown)) is on record as “did not affect cisplatin or oxaliplatin's tumor-killing efficacy in vivo”. In the data set with DRG (in vivo (data not shown)), the “oxidative DNA damage in DRG neurons” value is recorded as “protects DRG neurons from oxidative DNA damage”. In the data set with DRG (tumor-bearing mice), the “neurotoxicity induced by systemic administration of cisplatin” value was “attenuated neurotoxicity”. The “effect on MCP-1-induced change in CGRP release” value in data set [5] (E3330, MCP-1 0.3 μg/ml) is given as “prevented the change in CGRP release induced by MCP-1 exposure”. For the same molecule, the “stimulated release of CGRP in LPS-treated cultures” value in data set [5] (SCsiRNA-treated cultures, LPS 3 μg/ml 24 hours plus APE1 expression or E3330) is 9.7±0.8 % of total content.

Source of the values: patent US11351130B2, “Prevention and reversal of inflammation induced DNA damage” (Indiana University Research and Technology Corporation, priority 2017, dated 2022).
